Test results: ChEMBL document CHEMBL5120900, “Structure-Based Discovery of a Series of NSD2-PWWP1 Inhibitors” (J Med Chem, 2022)

molecular target: T1, Histone-lysine N-methyltransferase NSD2 (Homo sapiens, UniProt O96028); experiment: Binding affinity to N-terminal His6/Sumo-tagged NSD2 PWWP1 domain (211 to 350 residues) (unknown origin) expressed in Escherichia coli BL21 (DE3) using ATKAARKSAPATGGV-Lys (me)2-KPHRYRPG polypeptide as substrate incubated for 3 hrs by HTRF assay
T1 sequence (O96028 whole entry): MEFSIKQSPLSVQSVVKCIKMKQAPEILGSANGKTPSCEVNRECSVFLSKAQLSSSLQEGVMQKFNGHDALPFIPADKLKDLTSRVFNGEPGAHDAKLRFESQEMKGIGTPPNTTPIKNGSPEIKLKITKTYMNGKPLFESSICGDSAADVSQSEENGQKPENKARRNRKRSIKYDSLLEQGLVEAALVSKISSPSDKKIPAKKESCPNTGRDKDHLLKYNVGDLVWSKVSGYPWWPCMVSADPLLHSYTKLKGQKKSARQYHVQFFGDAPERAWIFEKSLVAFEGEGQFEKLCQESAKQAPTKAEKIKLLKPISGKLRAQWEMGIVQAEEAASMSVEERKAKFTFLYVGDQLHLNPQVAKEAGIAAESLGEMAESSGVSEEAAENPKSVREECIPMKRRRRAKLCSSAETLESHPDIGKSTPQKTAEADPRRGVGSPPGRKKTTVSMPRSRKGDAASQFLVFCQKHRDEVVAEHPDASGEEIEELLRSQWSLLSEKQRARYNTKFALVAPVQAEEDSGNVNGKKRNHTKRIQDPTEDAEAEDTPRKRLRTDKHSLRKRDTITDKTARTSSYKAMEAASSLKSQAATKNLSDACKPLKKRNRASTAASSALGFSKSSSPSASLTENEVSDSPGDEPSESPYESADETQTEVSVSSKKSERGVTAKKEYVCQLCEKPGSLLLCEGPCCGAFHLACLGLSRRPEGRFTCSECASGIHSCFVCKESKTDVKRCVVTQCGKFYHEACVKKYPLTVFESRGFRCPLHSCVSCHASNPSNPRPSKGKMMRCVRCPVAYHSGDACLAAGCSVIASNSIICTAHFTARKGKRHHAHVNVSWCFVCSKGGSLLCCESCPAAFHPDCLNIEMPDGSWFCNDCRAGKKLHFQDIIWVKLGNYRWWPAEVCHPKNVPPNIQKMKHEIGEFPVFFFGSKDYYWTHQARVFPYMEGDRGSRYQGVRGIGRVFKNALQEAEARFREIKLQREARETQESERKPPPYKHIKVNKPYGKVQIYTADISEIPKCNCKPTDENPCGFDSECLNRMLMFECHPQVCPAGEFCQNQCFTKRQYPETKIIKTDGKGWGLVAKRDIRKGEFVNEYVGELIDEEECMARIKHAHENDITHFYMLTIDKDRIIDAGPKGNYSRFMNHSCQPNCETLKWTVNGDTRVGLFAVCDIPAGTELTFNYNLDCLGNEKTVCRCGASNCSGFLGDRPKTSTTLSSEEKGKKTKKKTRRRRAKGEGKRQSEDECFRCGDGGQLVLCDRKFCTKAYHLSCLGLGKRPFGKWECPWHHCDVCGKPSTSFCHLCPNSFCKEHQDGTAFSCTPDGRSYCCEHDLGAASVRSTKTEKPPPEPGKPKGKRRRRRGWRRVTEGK

| SMILES | IC50 |
| --- | --- |
| Cc1cc(CN)cc(C)c1-c1ncn(C)c1-c1ccc(C#N)c(C(F)(F)F)c1 | 15.4 µM |
| Cc1cc(CN2CCNCC2)cc(C)c1-c1ncn(C)c1-c1ccc(C#N)c2ccccc12 | 1.89 µM |
| Cc1cc(CNC(=O)OC(C)(C)C)cc(C)c1-c1ncn(C)c1-c1ccc(C#N)c2ccccc12 | 1.67 µM |
| Cc1cc(C#N)cc(C)c1-c1ncn(C)c1-c1ccc(C#N)c2ccccc12 | > 20 µM |
| Cc1cc(NC(=O)OC(C)(C)C)cc(C)c1-c1ncn(C)c1-c1ccc(C#N)c2ccccc12 | > 25 µM |
| Cn1cnc(-c2ccc(CN)cc2F)c1-c1ccc(C#N)cc1 | 11.2 µM |
| CCNCc1cc(C)c(-c2ncn(C)c2-c2ccc(C#N)c3ccccc23)c(C)c1 | 0.7 µM |
| Cc1cc(CN2CCN(C(=O)OC(C)(C)C)CC2)cc(C)c1-c1ncn(C)c1-c1ccc(C#N)c2ccccc12 | 8.07 µM |
| Cn1cnc(-c2ccc(CN)cc2C(F)(F)F)c1-c1ccc(C#N)cc1 | 6.01 µM |
| Cc1cc(CN)ccc1-c1ncn(C)c1-c1ccc(C#N)cc1 | 4.68 µM |
| Cc1cc(CO)cc(C)c1-c1ncn(C)c1-c1ccc(C#N)c2ccccc12 | 13.8 µM |
| Cn1cnc(-c2ccc(CN)cc2)c1-c1ccc(C#N)cc1 | 13.9 µM |
| Cn1cnc(-c2ccc(CN)cc2Cl)c1-c1ccc(C#N)cc1 | 6.11 µM |
| Cc1cc(CN)cc(C)c1-c1ncn(C)c1-c1ccc(C#N)c(F)c1 | 2.91 µM |
| Cc1cc(CN)cc(C)c1-c1ncn(C)c1-c1ccc(C#N)c(Cl)c1 | 5.03 µM |
| Cc1cc(CN2CCC(NC(=O)OC(C)(C)C)CC2)cc(C)c1-c1ncn(C)c1-c1ccc(C#N)c2ccccc12 | 8.05 µM |
| Cc1cc(CN)cc(C)c1-c1ncn(C)c1-c1ccc(C#N)c(N)c1 | 8.78 µM |
| Cc1cc(CN2CCC(N(C)C)C2)cc(C)c1-c1ncn(C)c1-c1ccc(C#N)c2ccccc12 (configuration not stated) | 2 µM |

| SMILES | IC50 |
| --- | --- |
| Cc1cc(CN)cc(C)c1-c1ncn(C)c1-c1ccc(C#N)c2ccccc12 | 0.52 µM |
| CCC(O)c1cc(C)c(-c2ncn(C)c2-c2ccc(C#N)c3ccccc23)c(C)c1 (configuration not stated) | > 24 µM |
| CCC(=O)c1cc(C)c(-c2ncn(C)c2-c2ccc(C#N)c3ccccc23)c(C)c1 | > 22 µM |
| Cc1cc(CN)cc(C)c1-c1ncn(C)c1-c1ccc(C#N)cc1 | 0.57 µM |
| Cc1cc(CN2CCCCC2)cc(C)c1-c1ncn(C)c1-c1ccc(C#N)c2ccccc12 | 1.49 µM |
| COc1cc(-c2c(-c3c(C)cc(CN)cc3C)ncn2C)ccc1C#N | 10.9 µM |
| COc1cc(CN)cc(OC)c1-c1ncn(C)c1-c1ccc(C#N)cc1 | 4.44 µM |
| Cc1cc(CNC(C)(C)C)cc(C)c1-c1ncn(C)c1-c1ccc(C#N)c2ccccc12 | 0.64 µM |
| CNc1cc(-c2c(-c3c(C)cc(CN)cc3C)ncn2C)ccc1C#N | > 20 µM |
| Cc1cc(C=O)cc(C)c1-c1ncn(C)c1-c1ccc(C#N)c2ccccc12 | > 21 µM |
| Cc1cc(CNCCN)cc(C)c1-c1ncn(C)c1-c1ccc(C#N)c2ccccc12 | 0.62 µM |
| Cc1cc(CN)cc(C)c1-c1ncn(C)c1-c1ccc(C#N)c2ncccc12 | 1.58 µM |
| Cc1cc(CN2CCCC2)cc(C)c1-c1ncn(C)c1-c1ccc(C#N)c2ccccc12 | 2.07 µM |
| Cc1cc(CN2CCOCC2)cc(C)c1-c1ncn(C)c1-c1ccc(C#N)c2ccccc12 | 3.84 µM |
| Cc1cc(CN2CCC(O)C2)cc(C)c1-c1ncn(C)c1-c1ccc(C#N)c2ccccc12 (configuration not stated) | 0.52 µM |
| COc1cc(CN)ccc1-c1ncn(C)c1-c1ccc(C#N)cc1 | 12 µM |
| Cc1cc(CNC2CC2)cc(C)c1-c1ncn(C)c1-c1ccc(C#N)c2ccccc12 | 0.43 µM |
| Cc1cc(N)cc(C)c1-c1ncn(C)c1-c1ccc(C#N)c2ccccc12 | 10.6 µM |

molecular target: T2, Histone-lysine N-methyltransferase NSD3 (Homo sapiens, UniProt Q9BZ95); experiment: Binding affinity to NSD3 (unknown origin) assessed as dissociation constant
T2 sequence (Q9BZ95 whole entry): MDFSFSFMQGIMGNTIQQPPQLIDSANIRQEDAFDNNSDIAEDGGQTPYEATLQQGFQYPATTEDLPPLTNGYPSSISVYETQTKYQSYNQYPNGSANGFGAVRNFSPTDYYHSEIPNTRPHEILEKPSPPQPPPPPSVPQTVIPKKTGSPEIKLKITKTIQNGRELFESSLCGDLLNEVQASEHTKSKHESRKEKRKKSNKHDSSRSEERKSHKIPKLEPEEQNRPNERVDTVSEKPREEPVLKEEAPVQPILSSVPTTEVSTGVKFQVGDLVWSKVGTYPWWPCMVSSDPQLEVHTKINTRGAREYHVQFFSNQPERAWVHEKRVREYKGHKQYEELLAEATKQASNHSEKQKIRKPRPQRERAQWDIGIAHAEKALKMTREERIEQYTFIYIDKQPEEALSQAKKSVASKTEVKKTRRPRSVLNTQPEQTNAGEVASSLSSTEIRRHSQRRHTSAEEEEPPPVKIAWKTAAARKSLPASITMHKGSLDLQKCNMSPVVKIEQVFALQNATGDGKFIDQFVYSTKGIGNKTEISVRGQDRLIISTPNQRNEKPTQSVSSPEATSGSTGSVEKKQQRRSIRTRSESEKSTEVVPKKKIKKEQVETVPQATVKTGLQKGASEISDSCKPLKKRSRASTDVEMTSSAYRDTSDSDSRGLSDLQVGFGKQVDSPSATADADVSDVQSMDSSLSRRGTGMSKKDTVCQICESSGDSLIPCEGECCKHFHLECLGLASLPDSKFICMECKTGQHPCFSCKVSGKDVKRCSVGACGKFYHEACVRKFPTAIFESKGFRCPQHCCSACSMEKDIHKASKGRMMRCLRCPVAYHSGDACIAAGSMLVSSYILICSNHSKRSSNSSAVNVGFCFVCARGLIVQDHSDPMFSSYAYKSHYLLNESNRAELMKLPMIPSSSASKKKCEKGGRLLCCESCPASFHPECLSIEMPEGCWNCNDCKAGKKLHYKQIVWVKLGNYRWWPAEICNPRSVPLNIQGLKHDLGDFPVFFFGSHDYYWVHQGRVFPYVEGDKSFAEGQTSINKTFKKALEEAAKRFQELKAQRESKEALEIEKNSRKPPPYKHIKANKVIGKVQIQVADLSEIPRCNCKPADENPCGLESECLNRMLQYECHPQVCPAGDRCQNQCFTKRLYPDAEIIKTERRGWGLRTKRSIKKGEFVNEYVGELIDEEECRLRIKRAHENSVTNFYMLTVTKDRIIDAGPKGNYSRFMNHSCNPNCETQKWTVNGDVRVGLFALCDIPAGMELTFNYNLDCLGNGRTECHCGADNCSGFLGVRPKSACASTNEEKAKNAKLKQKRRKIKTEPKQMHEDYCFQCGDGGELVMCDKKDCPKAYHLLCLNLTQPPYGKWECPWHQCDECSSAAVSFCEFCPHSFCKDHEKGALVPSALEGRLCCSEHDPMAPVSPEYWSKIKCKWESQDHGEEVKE

| SMILES | Kd |
| --- | --- |
| N#Cc1ccc(C(=O)N(Cc2cccs2)C2CC2)cc1 | 0.091 µM |
